≈ marks a conversion by molar mass, not a printed value. Where two headings read alike, the source gives them in different places.
Columns and labels:
[1] = test system: Enterobacter cloacae E-16; assay: MIC, broth dilution method; assay type: cell-based; details: for MIC: Enterobacter cloacae, read-out: Minimum inhibitory concentration
Experimental: Sodium salt of the antibiotic PS-7 was dissolved and diluted with the BRAIN HEART INFUSION BROTH "Eiken" at a concentration between 5 μg/ml and 100 μg/ml. The solution was further diluted with the same medium to obtain a series of geometric concentrations. To the serial dilutions were added the seed cultures prepared by shaking culture of various test microorganisms shown in Tab. 5 in the BRAIN HEART INFUSION GROTH at 28° C. for 18 hours, the final cell count being about 1×10^5 /ml. […] The lowest concentration at which no cell growth was observed was the minimum inhibitory concentration of the antibiotic PS-7 on the test microorganism. […] The minimum inhibitory concentrations on test strains were determined in the same manner as mentioned above.

[2] = test system: Diplococcus pneumoniae Type III; assay: MIC, broth dilution method; assay type: cell-based
Proteus vulgaris P-5 [3] = assay: Potentiating and synergistic effect, pulp disc inhibition zone on agar plate; assay type: cell-based
Experimental: (§1) 10 ml of 2.5 folds diluted nutrient agar (pH 7.0) containing 50 μg/ml of penicillin G or cephaloridine was seeded with the β-lactamase producing and β-lactam-resistant microorganisms and poured in a 9 cm Petri dish to provide the bio-assay agar plate. […] A control assay plate was similarly prepared without penicillin G or cephaloridine. As reference antibiotics, 10,000 μg/ml of penicillin G or 20 μl of cephaloridine were disc-assayed under the same conditions.
(§2) Cepholoridine was added to a 2.5-times diluted nutrient agar, pH 7.0 and the medium was inoculated with a β-lactam-producing strain that produceds β-lactamase. Ten ml of the medium was spread and solidified in a petri dish of 9 cm in diameter to prepare an assay plate. […] Each 20 μl of the solution and its 2- and 4-times diluted solutions was soaked in a pulp disc of 8 mm in diameter. To the surface of the above nutrient agar was placed the pulp disc and the size of the growth inhibitory zone around the disc was examined after incubation at 35° C. for 18 hours. […] In addition, for the comparison, a similar experiment was also performed with a pulp disk soaked with 20 μl of 10,000 μg/ml Penicillin G or Cepholoridine solution in place of the antibiotic PS-7.

[4] = test system: β-lactamase-producing, β-lactam-resistant bacteria; assay: Increase of the antibiotic activity of other antibiotics (summary in words); assay type: cell-based; details: β-lactamase-producing bacteria such as Proteus vulgaris, Serratia marcescens
Experimental: as §1, §2

Serratia marcescens S-18 [5] = assay: Potentiating and synergistic effect, pulp disc inhibition zone on agar plate; assay type: cell-based
Experimental: (§3) 10 ml of 2.5 folds diluted nutrient agar (pH 7.0) containing 50 μg/ml of penicillin G or cephaloridine was seeded with the β-lactamase producing and β-lactam-resistant microorganisms and poured in a 9 cm Petri dish to provide the bio-assay agar plate. On this assay plate, 8 mm of pulp discs each containing 20 μl of antibiotic PS-6 solution at the concentration of 240 μg/ml were placed and incubated at 35° C. for 18 hours before reading the inhibition zones. A control assay plate was similarly prepared without penicillin G or cephaloridine. As reference antibiotics, 10,000 μg/ml of penicillin G or 20 μl of cephaloridine were disc-assayed under the same conditions.

Citrobacter freundii E-9 [6] = assay: as above; assay type: cell-based
Experimental: as §3

Citrobacter freundii E-9 [7] = assay: MIC, broth dilution method; assay type: cell-based; details: for MIC: Citrobacter freundii, read-out: Minimum inhibitory concentration
Experimental: (§4) Sodium salt of the antibiotic PS-7 was dissolved and diluted with the BRAIN HEART INFUSION BROTH "Eiken" at a concentration between 5 μg/ml and 100 μg/ml. The solution was further diluted with the same medium to obtain a series of geometric concentrations. To the serial dilutions were added the seed cultures prepared by shaking culture of various test microorganisms shown in Tab. 5 in the BRAIN HEART INFUSION GROTH at 28° C. for 18 hours, the final cell count being about 1×10^5 /ml. […] The lowest concentration at which no cell growth was observed was the minimum inhibitory concentration of the antibiotic PS-7 on the test microorganism. […] . The minimum inhibitory concentrations on test strains were determined in the same manner as mentioned above. […] For the comparison, the results on the known antibiotics Cephazolin and Cefoxitin are also given in the same table.

[8] = test system: Alcaligenes faecalis B-326; assay: MIC, broth dilution method; assay type: cell-based; details: for MIC: Alcaligenes faecalis, read-out: Minimum inhibitory concentration
Experimental: as §4

[9] = test system: Staphylococcus aureus FDA 209P; assay: MIC, broth dilution method; assay type: cell-based; details: FDA209P, read-out: Minimum inhibitory concentration
Experimental: as §4

[10] = test system: Diplococcus pneumoniae Type III; assay: MIC, broth dilution method; assay type: cell-based; details: Streptococcus pneumoniae, read-out: Minimum inhibitory concentration
Experimental: as §4

[11] = test system: Streptococcus pyogenes NY-5; assay: MIC, broth dilution method; details: for MIC: Streptococcus pyogenes, NY5, 20 h, read-out: Minimum inhibitory concentration
[12] = test system: Staphylococcus aureus FDA 209P; assay: MIC, broth dilution method; assay type: cell-based; details: for MIC: Staphylococcus aureus, FDA209P, Table 7, no unit in the head, read-out: Minimum inhibitory concentration
Proteus vulgaris P-5 [13] = assay: MIC, broth dilution method; details: for MIC: Proteus vulgaris, P5, 20 h, read-out: Minimum inhibitory concentration
[14] = test system: Klebsiella pneumoniae K-2; assay: MIC, broth dilution method; details: for MIC: Klebsiella pneumoniae, K2, 20 h, read-out: Minimum inhibitory concentration
Serratia marcescens S-18 [15] = assay: MIC, broth dilution method; details: S18, 20 h, read-out: Minimum inhibitory concentration
[16] = test system: Staphylococcus aureus Rassell; assay: MIC, broth dilution method; details: 20 h, read-out: Minimum inhibitory concentration
[17] = test system: Bacillus subtilis ATCC 6633; assay: MIC, broth dilution method; details: ATCC6633, 20 h, read-out: Minimum inhibitory concentration
Proteus mirabilis P-6 = assay: MIC, broth dilution method; details: P6, 20 h, read-out: Minimum inhibitory concentration
Providencia sp. P-8 = assay: MIC, broth dilution method; details: SP.P8, 20 h, read-out: Minimum inhibitory concentration
[18] = test system: Staphylococcus aureus Bx-1633; assay: MIC, broth dilution method; details: BX1633, 20 h, read-out: Minimum inhibitory concentration
[19] = test system: Enterobacter aerogenes E-19; assay: MIC, broth dilution method; details: Klebsiella aerogenes, E19, 20 h, read-out: Minimum inhibitory concentration
Proteus sp. P-22 = assay: MIC, broth dilution method; details: 20 h, read-out: Minimum inhibitory concentration
Proteus rettgeri P-7 = assay: MIC, broth dilution method; details: Providencia rettgeri, P7, 20 h, read-out: Minimum inhibitory concentration
Enterobacter sp. E-8 = assay: MIC, broth dilution method; details: SP.E8, 20 h, read-out: Minimum inhibitory concentration
[20] = Table 9, lactamase producing organism
[21] = Table 9, 10% of horse blood in the medium
[22] = Table 6, agar containing 50 μg/ml of cephaloridine, disc 20 μl, PS-6 240 μg/ml, reference antibiotics 10,000 μg/ml
[23] = Table 6, agar containing 50 μg/ml of penicillin G, disc 20 μl, PS-6 240 μg/ml, reference antibiotics 10,000 μg/ml
[24] = E16, Table 7, no unit in the head, lactamase-producing strain
[25] = E9, Table 7, no unit in the head, lactamase-producing strain
[26] = B326, Table 7, no unit in the head

SMILES: O=C(Cc1cccs1)N[C@@H]1C(=O)N2C(C(=O)[O-])=C(C[n+]3ccccc3)CS[C@H]12 [cephaloridine]
- MIC ([1]; E16, 20 h): > 100 µg/mL
- Minimum inhibitory concentration [1, 20]: > 100 µg/mL
- Minimum inhibitory concentration [2, 21]: 0.01 µg/mL (≈ 0.0241 µM)
- zone of inhibition at 10000 µg/mL (Proteus vulgaris P-5 [3]; Proteus vulgaris, P5, 18 h, read-out: Diameter of inhibitory zone, No addition): 12 mm
- zone of inhibition at 240 µg/mL (Proteus vulgaris P-5 [3]; Proteus vulgaris, P5, 18 h, read-out: Inhibition zone, Control): 12 mm
- Inhibition zone, with cephaloridine (Proteus vulgaris P-5 [3]; [22]): 12.0 mm
- Inhibition zone, with penicillin G (Proteus vulgaris P-5 [3]; [23]): 12.0 mm
- Diameter of inhibitory zone, Cephaloridine-added (Proteus vulgaris P-5 [3]; Table 8, comparison disc 20 μl of 10,000 μg/ml, cephaloridine in the agar): 12.0 mm
- Synergistic enhancement of the activity of penicillin G or cephaloridine (β-lactam antibiotics) [4]: no synergistic effect
- Synergistic enhancement of the activity of penicillin G or cephaloridine (β-lactam antibiotics) ([4]; listed as Cephaloridine): No enhancement of antimicrobial activity
- zone of inhibition at 240 µg/mL (Serratia marcescens S-18 [5]; Serratia marcescens, S18, 18 h, read-out: Inhibition zone, Control): 11 mm
- Inhibition zone, with cephaloridine (Serratia marcescens S-18 [5]; [22]): 11.0 mm
- Inhibition zone, with penicillin G (Serratia marcescens S-18 [5]; [23]): 11.0 mm
- zone of inhibition at 240 µg/mL (Citrobacter freundii E-9 [6]; Citrobacter freundii, E9, 18 h, read-out: Inhibition zone, Control): 12 mm
- Inhibition zone, with cephaloridine (Citrobacter freundii E-9 [6]; [22]): 12.0 mm
- Inhibition zone, with penicillin G (Citrobacter freundii E-9 [6]; [23]): 12.0 mm
- MIC (Citrobacter freundii E-9 [7]; E9, 20 h): > 100 µg/mL
- Minimum inhibitory concentration (Citrobacter freundii E-9 [7]; [20]): > 100 µg/mL
- MIC ([8]; B326, 20 h): 3.13 µg/mL (≈ 7.53 µM)
- Minimum inhibitory concentration ([8]; Table 9): 3.13 µg/mL (≈ 7.53 µM)
- MIC ([9]; 20 h): 0.04 µg/mL (≈ 0.0963 µM)
- MIC ([10]; 20 h): 0.01 µg/mL (≈ 0.0241 µM)
- MIC [11]: 0.01 µg/mL (≈ 0.0241 µM)
- Minimum inhibitory concentration [11, 21]: 0.01 µg/mL (≈ 0.0241 µM)
- Minimum inhibitory concentration ([12]; Table 9, ester dissolved in methanol, final methanol not above 10%): 0.04 µg/mL (≈ 0.0963 µM)
- MIC (Proteus vulgaris P-5 [13]): > 100 µg/mL
- Minimum inhibitory concentration (Proteus vulgaris P-5 [13]; [20]): > 100 µg/mL
- MIC [14]: 20 µg/mL (≈ 48.1 µM)
- Minimum inhibitory concentration [14, 20]: 20.0 µg/mL (≈ 48.1 µM)

SMILES: Cc1nnc(SCC2=C(C(=O)O)N3C(=O)[C@@H](NC(=O)Cn4cnnn4)[C@H]3SC2)s1 [Cefazorin]
- MIC (Serratia marcescens S-18 [15]): > 100 µg/mL
- MIC [1, 24]: > 100 µg/mL
- MIC [16]: 1 µg/mL (≈ 2.2 µM)
- MIC [17]: 0.5 µg/mL (≈ 1.1 µM)
- MIC (Proteus mirabilis P-6): 6.25 µg/mL (≈ 13.8 µM)
- MIC (Providencia sp. P-8): 50 µg/mL (≈ 110 µM)
- MIC [18]: 0.5 µg/mL (≈ 1.1 µM)
- MIC (Citrobacter freundii E-9 [7]; E9, 20 h): > 100 µg/mL
- MIC (Citrobacter freundii E-9 [7]; [25]): > 100 µg/mL
- MIC ([8]; B326, Table 5, 35° C. 20 hours): 6.25 µg/mL (≈ 13.8 µM)
- MIC [8, 26]: 6.25 µg/mL (≈ 13.8 µM)
- MIC ([9]; Table 5, 35° C. 20 hours): 0.25 µg/mL (≈ 0.55 µM)
- MIC ([10]; 20 h): 0.125 µg/mL (≈ 0.275 µM)
- MIC [10]: 0.125 µg/mL (≈ 0.275 µM)
- MIC [11]: 0.25 µg/mL (≈ 0.55 µM)
- MIC [12]: 0.25 µg/mL (≈ 0.55 µM)
- MIC (Proteus vulgaris P-5 [13]): > 100 µg/mL
- MIC [14]: 6.25 µg/mL (≈ 13.8 µM)
- MIC [19]: > 100 µg/mL
- MIC (Proteus sp. P-22): > 100 µg/mL
- MIC (Proteus rettgeri P-7): 25 µg/mL (≈ 55 µM)
- MIC (Enterobacter sp. E-8): 3.13 µg/mL (≈ 6.89 µM)

SMILES: CO[C@@]1(NC(=O)Cc2cccs2)C(=O)N2C(C(=O)O)=C(COC(N)=O)CS[C@@H]21 [Cefoxitin]
- MIC (Serratia marcescens S-18 [15]): 50 µg/mL (≈ 117 µM)
- MIC ([1]; E16, 20 h, Table 5, betalactamase producer): > 100 µg/mL
- MIC [1, 24]: > 100 µg/mL
- MIC [16]: 5 µg/mL (≈ 11.7 µM)
- MIC [17]: 1.25 µg/mL (≈ 2.92 µM)
- MIC ([2]; Streptococcus pneumoniae, Table 7, no unit in the head, horse serum in the medium at 10%, read-out: Minimum inhibitory concentration): 2.5 µg/mL (≈ 5.85 µM)
- MIC [18]: 2.5 µg/mL (≈ 5.85 µM)
- MIC (Citrobacter freundii E-9 [7]; E9, 20 h, Table 5, betalactamase producer): > 100 µg/mL
- MIC (Citrobacter freundii E-9 [7]; [25]): > 100 µg/mL
- MIC ([8]; B326, Table 5, 35° C. 20 hours): 1.56 µg/mL (≈ 3.65 µM)
- MIC [8, 26]: 1.56 µg/mL (≈ 3.65 µM)
- MIC ([9]; Table 5, 35° C. 20 hours): 2.5 µg/mL (≈ 5.85 µM)
- MIC ([10]; 20 h, Table 5, 10% horse blood supplemented into the medium): 2.5 µg/mL (≈ 5.85 µM)
- MIC [11]: 1.25 µg/mL (≈ 2.92 µM)
- MIC [12]: 2.5 µg/mL (≈ 5.85 µM)
- MIC [14]: 6.25 µg/mL (≈ 14.6 µM)
- MIC [19]: > 100 µg/mL
- MIC (Enterobacter sp. E-8): 12.5 µg/mL (≈ 29.2 µM)
